Columns and labels:
Met and ERK = experiment: HGF induced activation of Met and ERK in L3.6pl cells (Western blot); type: cell-based, human; details: L3.6pl cells, peptide prior to induction with 10 ng/ml HGF
Procedure: Serum-starved cells (24 hours) were induced with the growth factor HGF (10 ng/mL) at 37° C. for 5 minutes. Where indicated, the cells were treated with peptides (100 ng/ml) prior to induction at 37° C. for 10 minutes (100 ng/mL CD44v6 peptide or control peptide). Following the induction with HGF, cells were washed with ice-cold phosphate-buffered saline (PBS). To detect activated Met and Erk, cells were lysed in sodium dodecyl sulfate (SDS)-sample buffer containing 100 mM dithiothreitol (DTT), boiled and subjected to western blot analysis using antibodies against phospho-Met and ERK. The loading controls were performed on the same blot after stripping (62.5 mM Tris, pH 6.8, 2% SDS, 0.8% DTT) by probing with the Met respectively ERK antibody. Blots were stained using the enhanced chemiluminescence system (Thermo Fisher Scientific, Schwerte, Germany). Bands in western blot analysis were quantified with the program Image J (National Institutes of Health).

L3.6pl cells = experiment: Human orthotopic model of pancreatic cancer, L3.6pl cells in nude mice; type: in vivo
Procedure: In the case of the human orthotopic model, L3.6pl pancreatic carcinoma cells (passage 24-26) were suspended in Hank's balanced salt solution (Invitrogen, Karlsruhe, Germany) after trypsinization. The cells were injected orthotopically in the pancreas of male nude mice as described (Bruns C J et al. (1999) Neoplasia 1(1):50-62). Two groups of 15 mice each were injected i.p. 7 days later with either the human v6 peptide respectively rat control peptide (20 μg). For all experiments described and depicted herein either the rat 14mer control peptide or the human 14mer peptide were used. All experiments were then repeated with the rat 5mer control peptide or the human 5mer peptide (N-R-W-H-E, SEQ ID NO: 2). […] The injection was repeated three times per week for 21 days. Two days after the last treatment the animals were killed. […]
A comparison of different CD44v6 peptide derivatives was performed in animals bearing a orthotopic L3.6pl tumor. 10 groups of 5 animals each received a dose of 20 μg peptide per injection three times per week for 3 weeks with the compounds listed in Table 4. Three weeks after starting the treatment the animals were sacrificed and analyzed for macroscopic metastases and tumor volume.

hVEGF = experiment: Human VEGF in cell culture supernatant of L3.6pl cells; type: cell-based; details: 200 ng/ml peptide in the culture medium, 5 days
Procedure: Determination of human HGF and VEGF levels in cell culture medium of L3.6pl cells were performed using the Quantikine Human HGF Immunoassay and Quantikine Human VEGF Immunoassay from Roche (Mannheim, GER) and R&D Systems (Wiesbaden, Germany). For this purpose 3×10^6 cells were cultured for 5 days in a 15 cm plate in the presence of the respective peptides as indicated. The supernatant (20 ml) was centrifuged (1200 rpm) and the assay was performed according to manufacturer's instructions.

HT29 cells = experiment: HGF induced scattering of HT29 cells; type: cell-based, human; details: HT29, HGF 50 ng/ml 24 h, human peptides prior to induction (FIG. 17)
Procedure: FIG. 17: The human CD44 v6 specific peptides block HGF induced cell scattering and invasion into matrigel. Scattering of HT29 cells was determined in 24-well plates. First, 4.5×10^4 cells were seeded at 37° C.; after 24 h the cells were serum starved for additional 24 h. the cells were either left untreated (control) or later treated with HGF (50 ng/ml) for 24 h. Where indicated the cells were treated with the v6 specific peptide (human v6 5mer, 10mer, 14mer) or control peptide prior to induction with HGF for 30 min. Pictures were made using phase contrast microscopy. Magnification 40×.
A scatter assay was performed additionally. HT29 colon cancer cells were grown in medium containing 10% FCS. One day after seeding, the cells were starved. On the third day, the cells were induced with HGF (10 ng/ml) and pre-incubated with either no peptide, ctrl-peptides (SEQ ID No.: 15), non-pegylated v6-peptides (SEQ ID No.: 11) or the pegylated peptides, namely PEG-rat control peptide and PEG-rat CD44v6 peptide.
Scattering of HT29 cells was determined in 24-well plates. First, 4×10^5 cells were seeded at 37° C.; the cells were either left untreated or 48 h later treated with HGF (50 ng/ml) for 24 h or with PEGylated or non-PEGylated peptides (100 ng/ml) prior to HGF induction for 30 min.

Met = experiment: HGF induced activation of Met and Erk in endothelial cells; type: cell-based, human; details: HUVEC, HAOEC and HCMEC; added before induction with HGF
Procedure: FIG. 12: CD44v6 is required for activation of Met and downstream signaling in several ECs. Different ECs (HUVEC, HAOEC and HCMEC) were serum starved and incubated with several reagents (aCD44v6, v6 14mer and the controls IgG and ctrl pep). The growth factor HGF was added and the cells were lysed. The proteins in the cell lysates were separated by SDS-PAGE and subjected to Western blot analysis. Activation of Met and of its downstream target Erk was detected by means of phospho-specific antibodies that detect phosphorylated forms of Met and Erk. In order to check equal loading of the different samples the membrane was incubated with stripping solution and reprobed with antibodies recognising all Met and Erk proteins. The numbers indicate the fold induction as calculated with the computer programme ImageJ.
When these ECs were treated with HGF, the receptor tyrosine kinase Met was phosphorylated and signaling to Erk—a downstream target of Met—was promoted (FIG. 12). The contribution of CD44v6 to Met signaling in these cells was analysed using different tools.

[1] = 20 μg i.p. three times per week for three weeks, start 7 days after implantation

“KEQWFGNRWHEGYR [human 14mer, human CD44v6 14mer peptide]” was tested, and the “Phosphorylation of Met and ERK” value (Met and ERK) was “inhibited”, the “metastatic spreading at 10 μg” value (L3.6pl cells; 10 μg per injection, three times per week for 3 weeks) was “complete inhibition of metastatic spreading” and the “tumor angiogenesis (vessel number and vessel size, CD31)” value (L3.6pl cells; 20 μg i.p. three times per week for three weeks) was “decreased angiogenesis”. For the same sequence, the “Met activation in the tumor (phospho-Met immunofluorescence)” value (L3.6pl cells; [1]) was “completely repressed Met activation”, the “outgrowth of the primary tumor in the pancreas” value (L3.6pl cells; [1]) was “strongly repressed” and the “metastasis formation (liver)” value (L3.6pl cells; 20 μg i.p. three times per week for three weeks, start 7 days after implantation, listed as SEQ ID No.: 6) was “capable of inhibiting metastasis”. For the same sequence, the “metastasis formation (liver)” value (L3.6pl cells; 20 μg i.p. three times per week for three weeks, start 7 days after implantation, listed as human-specific peptide) was “completely inhibited metastasis formation within the liver”, the “reduction of tumor size, ranking (side-by-side comparison)” value (L3.6pl cells; 20 μg per injection three times per week for 3 weeks (FIG. 23A)) was “strongest reduction of tumor size” and the “variability in the individual tumor size within the group” value (L3.6pl cells; 20 μg per injection three times per week for 3 weeks (FIG. 23B)) was “low variability”. For the same sequence, the “metastatic spreading to the liver (side-by-side comparison)” value (L3.6pl cells; 20 μg per injection three times per week for 3 weeks (FIG. 24)) was “complete inhibition of metastasis”, the “tumor growth compared to the control peptide (side-by-side comparison)” value (L3.6pl cells; 20 μg per injection three times per week for 3 weeks, 5 animals per group) was “significant reduction in tumor growth” and the “liver metastases at 0.2 and 2 μg” value (L3.6pl cells; 0.2 and 2 μg per injection, three times per week for 3 weeks) was “showed liver metastases but the average number of metastases per animal was reduced”. For the same sequence, the “size / growth of the primary tumor (dose reduction study)” value (L3.6pl cells; three injections per week for 3 weeks, compared to control groups (FIG. 22C)) was “significant decrease of the size of the primary tumor”, the “hVEGF secretion by L3.6pl cells” value (hVEGF) was “can be blocked” and the “HGF induced scattering or invasion through the extracellular matrix” value (HT29 cells) was “prevented completely scattering or invasion through the extracellular matrix”. For the same sequence, the “activation of Met and of its downstream target Erk” value (Met) was “able to prevent activation of Met and of its downstream target Erk”.
